Source: patent publication US20230085307A1, “PYRIDAZINONE COMPOUND AND HERBICIDE” (NISSAN CHEMICAL CORPORATION, priority 2019, published 2023)

Columns and labels:
redroot pigweed [1] = assay: Test Example 5: herbicidal effect by foliage application, plastic box (Table 20, symbol N); format: in vivo, redroot pigweed (Amaranthus retroflexus); details: amount of applied herbicide 320 g/ha; foliage application after 14-day growth; evaluated three weeks after application
Procedure, shortened: (§1)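 Post-emergence foliar test in sterilized diluvial soil. Compound applied as water-diluted emulsion at a predetermined rate to 14-day-old plants; evaluation at three weeks.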

barnyard grass [2] = assay: Test Example 3: herbicidal effect by foliage application, Wagner pot (Table 18, symbol H); format: in vivo, barnyard grass (Echinochloa crus-galli); details: 320 g/ha
Procedure, shortened: (§2)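 Plants were sown in alluvial soil held under 0.1–0.5 cm standing water and grown 14 days in a greenhouse at 25–30 °C. An emulsifiable formulation, water-diluted to the set dose, was then sprayed onto the foliage, and effects were scored three weeks later using previously defined criteria.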

southern crabgrass [3] = assay: Test Example 5: herbicidal effect by foliage application, plastic box (Table 20, symbol F); format: in vivo, southern crabgrass (Digitaria ciliaris); details: amount of applied herbicide 320 g/ha; foliage application after 14-day growth; evaluated three weeks after application
Procedure, shortened: as §1

Italian ryegrass [4] = assay: Test Example 5: herbicidal effect by foliage application, plastic box (Table 20, symbol K); format: in vivo, Italian ryegrass (Lolium multiflorum); details: amount of applied herbicide 320 g/ha; foliage application after 14-day growth; evaluated three weeks after application
Procedure, shortened: as §1

late watergrass = assay: Test Example 1: herbicidal activity, application before weed generation under submerged conditions (Table 16, symbol A); format: in vivo, late watergrass (Echinochloa oryzicola); details: amount of applied herbicide 320 g/ha
Procedure, shortened: (§3)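 Emulsion formulation, water-diluted to set dose, was put onto the flooded surface (4 cm depth, alluvial soil) the same day weeds were sown and 2.5-leaf rice transplanted. After 3 weeks at 25-30 °C under glass, each species was rated 0 (≤5% kill) to 5 (≥90% kill).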

Italian ryegrass [5] = assay: Test Example 4: herbicidal effect by soil treatment (Table 19, symbol K); format: in vivo, Italian ryegrass (Lolium multiflorum); details: amount of applied herbicide 320 g/ha
Procedure, shortened: (§4)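 Scoring uses the grading scale of an earlier test, three weeks post-application. Treatment consists of spraying a diluted emulsion formulation across the surface of sterilized diluvial soil in which seeds are buried near 1.5 cm deep; boxes are kept in a greenhouse between 25° C. and 30° C.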

velvetleaf [6] = assay: Test Example 5: herbicidal effect by foliage application, plastic box (Table 20, symbol M); format: in vivo, velvetleaf (Abutilon theophrasti); details: amount of applied herbicide 320 g/ha; foliage application after 14-day growth; evaluated three weeks after application
Procedure, shortened: as §1

oval-leafed pondweed = assay: Test Example 1: herbicidal activity, application before weed generation under submerged conditions (Table 16, symbol C); format: in vivo, oval-leafed pondweed (Monochoria vaginalis); details: amount of applied herbicide 320 g/ha
Procedure, shortened: as §3

blackgrass [7] = assay: Test Example 4: herbicidal effect by soil treatment (Table 19, symbol J); format: in vivo, blackgrass (Alopecurus myosuroides); details: amount of applied herbicide 320 g/ha
Procedure, shortened: as §4

windgrass [8] = assay: Test Example 4: herbicidal effect by soil treatment (Table 19, symbol L); format: in vivo, windgrass (Apera spica-venti); details: amount of applied herbicide 320 g/ha
Procedure, shortened: as §4

windgrass [9] = assay: Test Example 5: herbicidal effect by foliage application, plastic box (Table 20, symbol L); format: in vivo, windgrass (Apera spica-venti); details: amount of applied herbicide 320 g/ha; foliage application after 14-day growth; evaluated three weeks after application
Procedure, shortened: as §1

false cleavers = assay: Test Example 4: herbicidal effect by soil treatment (Table 19, symbol Q); format: in vivo, false cleavers (Galium spurium); details: amount of applied herbicide 320 g/ha
Procedure, shortened: as §4

lambsquarters [10] = assay: Test Example 5: herbicidal effect by foliage application, plastic box (Table 20, symbol O); format: in vivo, lambsquarters (Chenopodium album); details: amount of applied herbicide 320 g/ha; foliage application after 14-day growth; evaluated three weeks after application
Procedure, shortened: as §1

barnyard grass [11] = assay: Test Example 4: herbicidal effect by soil treatment (Table 19, symbol H); format: in vivo, barnyard grass (Echinochloa crus-galli); details: amount of applied herbicide 320 g/ha
Procedure, shortened: as §4

chickweed [12] = assay: Test Example 4: herbicidal effect by soil treatment (Table 19, symbol P); format: in vivo, common chickweed (Stellaria media); details: amount of applied herbicide 320 g/ha
Procedure, shortened: as §4

velvetleaf [13] = assay: Test Example 4: herbicidal effect by soil treatment (Table 19, symbol M); format: in vivo, velvetleaf (Abutilon theophrasti); details: amount of applied herbicide 320 g/ha
Procedure, shortened: as §4

wild oat [14] = assay: Test Example 4: herbicidal effect by soil treatment (Table 19, symbol I); format: in vivo, wild oat (Avena fatua); details: amount of applied herbicide 320 g/ha
Procedure, shortened: as §4

lambsquarters [15] = assay: Test Example 4: herbicidal effect by soil treatment (Table 19, symbol O); format: in vivo, lambsquarters (Chenopodium album); details: amount of applied herbicide 320 g/ha
Procedure, shortened: as §4

Japanese bulrush = assay: Test Example 1: herbicidal activity, application before weed generation under submerged conditions (Table 16, symbol B); format: in vivo, Japanese bulrush (Schoenoplectus juncoides); details: amount of applied herbicide 320 g/ha
Procedure, shortened: as §3

wild oat [16] = assay: Test Example 5: herbicidal effect by foliage application, plastic box (Table 20, symbol I); format: in vivo, wild oat (Avena fatua); details: amount of applied herbicide 320 g/ha; foliage application after 14-day growth; evaluated three weeks after application
Procedure, shortened: as §1

redroot pigweed [17] = assay: Test Example 4: herbicidal effect by soil treatment (Table 19, symbol N); format: in vivo, redroot pigweed (Amaranthus retroflexus); details: amount of applied herbicide 320 g/ha
Procedure, shortened: as §4

persian speedwell = assay: Test Example 5: herbicidal effect by foliage application, plastic box (Table 20, symbol R); format: in vivo, Persian speedwell (Veronica persica); details: amount of applied herbicide 320 g/ha; foliage application after 14-day growth; evaluated three weeks after application
Procedure, shortened: as §1

southern crabgrass [18] = assay: Test Example 4: herbicidal effect by soil treatment (Table 19, symbol F); format: in vivo, southern crabgrass (Digitaria ciliaris); details: amount of applied herbicide 320 g/ha
Procedure, shortened: as §4

green foxtail [19] = assay: Test Example 5: herbicidal effect by foliage application, plastic box (Table 20, symbol G); format: in vivo, green foxtail (Setaria viridis); details: amount of applied herbicide 320 g/ha; foliage application after 14-day growth; evaluated three weeks after application
Procedure, shortened: as §1

chickweed [20] = assay: Test Example 5: herbicidal effect by foliage application, plastic box (Table 20, symbol P); format: in vivo, common chickweed (Stellaria media); details: amount of applied herbicide 320 g/ha; foliage application after 14-day growth; evaluated three weeks after application
Procedure, shortened: as §1

blackgrass [21] = assay: Test Example 5: herbicidal effect by foliage application, plastic box (Table 20, symbol J); format: in vivo, blackgrass (Alopecurus myosuroides); details: amount of applied herbicide 320 g/ha; foliage application after 14-day growth; evaluated three weeks after application
Procedure, shortened: as §1

rice flat sedge = assay: Test Example 3: herbicidal effect by foliage application, Wagner pot (Table 18, symbol E); format: in vivo, rice flat sedge (Cyperus iria); details: 320 g/ha
Procedure, shortened: as §2

green foxtail [22] = assay: Test Example 4: herbicidal effect by soil treatment (Table 19, symbol G); format: in vivo, green foxtail (Setaria viridis); details: amount of applied herbicide 320 g/ha
Procedure, shortened: as §4

Chinese sprangletop = assay: Test Example 3: herbicidal effect by foliage application, Wagner pot (Table 18, symbol D); format: in vivo, chinese sprangletop (Leptochloa chinensis); details: 320 g/ha
Procedure, shortened: as §2

barnyard grass [23] = assay: Test Example 5: herbicidal effect by foliage application, plastic box (Table 20, symbol H); format: in vivo, barnyard grass (Echinochloa crus-galli); details: amount of applied herbicide 320 g/ha; foliage application after 14-day growth; evaluated three weeks after application
Procedure, shortened: as §1

Compound	Herbicidal effect by foliage application, N: redroot pigweed (redroot pigweed [1])	herbicidal effect on barnyard grass (H) (barnyard grass [2])	Herbicidal effect by foliage application, F: southern crabgrass (southern crabgrass [3])	Herbicidal effect by foliage application, K: Italian ryegrass (Italian ryegrass [4])	Herbicidal effect, A: late watergrass (late watergrass)	Herbicidal effect by foliage application, M: velvetleaf (velvetleaf [6])	Herbicidal effect, C: oval-leafed pondweed (oval-leafed pondweed)	Herbicidal effect by foliage application, L: windgrass (windgrass [9])	Herbicidal effect by foliage application, O: lambsquarters (lambsquarters [10])	Herbicidal effect, B: Japanese bulrush (Japanese bulrush)	Herbicidal effect by foliage application, I: wild oat (wild oat [16])	Herbicidal effect by foliage application, R: persian speedwell (persian speedwell)	Herbicidal effect by foliage application, G: green foxtail (green foxtail [19])	Herbicidal effect by foliage application, P: chickweed (chickweed [20])	Herbicidal effect by foliage application, J: blackgrass (blackgrass [21])	herbicidal effect on rice flat sedge (E) (rice flat sedge)	herbicidal effect on Chinese sprangletop (D) (Chinese sprangletop)	Herbicidal effect by foliage application, H: barnyard grass (barnyard grass [23])	further results
Cc1nn(C)c(=O)c(-c2c(-c3ccc(C(F)(F)F)cc3)sc3c(C)cccc23)c1O [4-126]	5 (Herbicidal rate of 90% or more (almost completely withered))	3 (Herbicidal rate of 40% or more and less than 70%)	0 (Herbicidal rate of 5% or less (almost no effect))	4 (Herbicidal rate of 70% or more and less than 90%)	3 (Herbicidal rate of 40% or more and less than 70%)	5 (Herbicidal rate of 90% or more (almost completely withered))	0 (Herbicidal rate of 5% or less (almost no effect))	0 (Herbicidal rate of 5% or less (almost no effect))	3 (Herbicidal rate of 40% or more and less than 70%)	0 (Herbicidal rate of 5% or less (almost no effect))	0 (Herbicidal rate of 5% or less (almost no effect))	5 (Herbicidal rate of 90% or more (almost completely withered))	0 (Herbicidal rate of 5% or less (almost no effect))	5 (Herbicidal rate of 90% or more (almost completely withered))	3 (Herbicidal rate of 40% or more and less than 70%)	3 (Herbicidal rate of 40% or more and less than 70%)	0 (Herbicidal rate of 5% or less (almost no effect))	0 (Herbicidal rate of 5% or less (almost no effect))	Herbicidal effect by soil treatment, K: Italian ryegrass (Italian ryegrass [5]): 1 (Herbicidal rate of 5% or more and less than 20%); Herbicidal effect by soil treatment, J: blackgrass (blackgrass [7]): 0 (Herbicidal rate of 5% or less (almost no effect)); Herbicidal effect by soil treatment, L: windgrass (windgrass [8]): 0 (Herbicidal rate of 5% or less (almost no effect)); Herbicidal effect by soil treatment, Q: false cleavers (false cleavers): 0 (Herbicidal rate of 5% or less (almost no effect)); Herbicidal effect by soil treatment, H: barnyard grass (barnyard grass [11]): 0 (Herbicidal rate of 5% or less (almost no effect)); Herbicidal effect by soil treatment, P: chickweed (chickweed [12]): 4 (Herbicidal rate of 70% or more and less than 90%); Herbicidal effect by soil treatment, M: velvetleaf (velvetleaf [13]): 0 (Herbicidal rate of 5% or less (almost no effect)); Herbicidal effect by soil treatment, I: wild oat (wild oat [14]): 0 (Herbicidal rate of 5% or less (almost no effect)); Herbicidal effect by soil treatment, O: lambsquarters (lambsquarters [15]): 3 (Herbicidal rate of 40% or more and less than 70%); Herbicidal effect by soil treatment, N: redroot pigweed (redroot pigweed [17]): 5 (Herbicidal rate of 90% or more (almost completely withered)); Herbicidal effect by soil treatment, F: southern crabgrass (southern crabgrass [18]): 0 (Herbicidal rate of 5% or less (almost no effect)); Herbicidal effect by soil treatment, G: green foxtail (green foxtail [22]): 0 (Herbicidal rate of 5% or less (almost no effect))
CCCC(=O)Oc1c(C)nn(C)c(=O)c1-c1c(-c2ccc(F)cc2OCC)sc2cc(F)c(F)cc12 [5-032]	3 (Herbicidal rate of 40% or more and less than 70%)	4 (Herbicidal rate of 70% or more and less than 90%)	0 (Herbicidal rate of 5% or less (almost no effect))	0 (Herbicidal rate of 5% or less (almost no effect))	4 (Herbicidal rate of 70% or more and less than 90%)	4 (Herbicidal rate of 70% or more and less than 90%)	0 (Herbicidal rate of 5% or less (almost no effect))	4 (Herbicidal rate of 70% or more and less than 90%)	3 (Herbicidal rate of 40% or more and less than 70%)	1 (Herbicidal rate of 5% or more and less than 20%)	0 (Herbicidal rate of 5% or less (almost no effect))	3 (Herbicidal rate of 40% or more and less than 70%)	2 (Herbicidal rate of 20% or more and less than 40%)	5 (Herbicidal rate of 90% or more (almost completely withered))	3 (Herbicidal rate of 40% or more and less than 70%)	0 (Herbicidal rate of 5% or less (almost no effect))	3 (Herbicidal rate of 40% or more and less than 70%)	4 (Herbicidal rate of 70% or more and less than 90%)	K: Italian ryegrass, herbicidal effect grade (Italian ryegrass [5]): 0 (Herbicidal rate of 5% or less (almost no effect)); J: blackgrass, herbicidal effect grade (blackgrass [7]): 3 (Herbicidal rate of 40% or more and less than 70%); L: windgrass, herbicidal effect grade (windgrass [8]): 5 (Herbicidal rate of 90% or more (almost completely withered)); Q: false cleavers, herbicidal effect grade (false cleavers): 0 (Herbicidal rate of 5% or less (almost no effect)); H: barnyard grass, herbicidal effect grade (barnyard grass [11]): 0 (Herbicidal rate of 5% or less (almost no effect)); P: chickweed, herbicidal effect grade (chickweed [12]): 0 (Herbicidal rate of 5% or less (almost no effect)); M: velvetleaf, herbicidal effect grade (velvetleaf [13]): 1 (Herbicidal rate of 5% or more and less than 20%); I: wild oat, herbicidal effect grade (wild oat [14]): 0 (Herbicidal rate of 5% or less (almost no effect)); O: lambsquarters, herbicidal effect grade (lambsquarters [15]): 4 (Herbicidal rate of 70% or more and less than 90%); N: redroot pigweed, herbicidal effect grade (redroot pigweed [17]): 4 (Herbicidal rate of 70% or more and less than 90%); F: southern crabgrass, herbicidal effect grade (southern crabgrass [18]): 0 (Herbicidal rate of 5% or less (almost no effect)); G: green foxtail, herbicidal effect grade (green foxtail [22]): 3 (Herbicidal rate of 40% or more and less than 70%)
